Source: PubChem BioAssay (NCI)
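1) Cells in 96-well plates. 2) Compound, 48 h, 5 concentrations. 3) Linear interpolation between surrounding doses. 4) Unreached endpoint = highest concentration. GI50 is the concentration that inhibits growth by half. The concentration for full growth arrest is given as TGI.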

Tests used:
Experiment in all cases: NCI anticancer screen, dose series, 48 h
ACHN renal = system: ACHN renal
A549 NSCLC = system: A549 NSCLC
M14 melanoma = system: M14 melanoma
IGROV1 ovarian = system: IGROV1 ovarian
MDA-MB-468 breast = system: MDA-MB-468 breast
NCI-H522 lung = system: NCI-H522 lung
HS 578T breast = system: HS 578T breast
TK-10 renal = system: TK-10 renal
T-47D breast = system: T-47D breast
HOP-62 NSCLC = system: HOP-62 NSCLC
MALME-3M melanoma = system: MALME-3M melanoma
HL-60(TB) leukemia = system: HL-60(TB) leukemia
SF-268 CNS = system: SF-268 CNS
NCI-H226 lung = system: NCI-H226 lung
K-562 leukemia = system: K-562 leukemia
SK-MEL-2 melanoma = system: SK-MEL-2 melanoma
LOX IMVI melanoma = system: LOX IMVI melanoma
DU-145 prostate = system: DU-145 prostate
OVCAR-3 ovarian = system: OVCAR-3 ovarian
A498 renal = system: A498 renal
OVCAR-8 ovarian = system: OVCAR-8 ovarian
CCRF-CEM leukemia = system: CCRF-CEM leukemia
SNB-19 CNS = system: SNB-19 CNS
OVCAR-5 ovarian = system: OVCAR-5 ovarian
KM12 colon = system: KM12 colon
SK-MEL-5 melanoma = system: SK-MEL-5 melanoma
OVCAR-4 ovarian = system: OVCAR-4 ovarian
SK-MEL-28 melanoma = system: SK-MEL-28 melanoma
MCF7 breast = system: MCF7 breast
SR leukemia = system: SR leukemia
SF-539 CNS = system: SF-539 CNS
SN12C renal = system: SN12C renal
RPMI-8226 leukemia = system: RPMI-8226 leukemia
COLO 205 colon = system: COLO 205 colon
HCT-116 colon = system: HCT-116 colon
HCT-15 colon = system: HCT-15 colon
PC-3 prostate = system: PC-3 prostate
HT29 colon = system: HT29 colon
MOLT-4 leukemia = system: MOLT-4 leukemia
BT-549 breast = system: BT-549 breast
SF-295 CNS = system: SF-295 CNS
UO-31 renal = system: UO-31 renal
EKVX NSCLC = system: EKVX NSCLC
RXF 393 renal = system: RXF 393 renal
MDA-MB-231 breast = system: MDA-MB-231 breast
HCC-2998 colon = system: HCC-2998 colon
CAKI-1 renal = system: CAKI-1 renal
U251 CNS = system: U251 CNS
786-0 renal = system: 786-0 renal
NCI-H23 lung = system: NCI-H23 lung
NCI-H460 lung = system: NCI-H460 lung
MDA-MB-435 = system: MDA-MB-435
HOP-92 NSCLC = system: HOP-92 NSCLC
SNB-75 CNS = system: SNB-75 CNS

Structure (SMILES): COC[C@@H](CC(C)C)N=C1NC(=O)/C(=C/c2ccc3ncoc3c2)N1
- GI50 (ACHN renal): 2.89 µM
- TGI (ACHN renal): > 100 µM
- GI50 (A549 NSCLC): 2.65 µM
- TGI (A549 NSCLC): > 100 µM
- GI50 (M14 melanoma): 5.64 µM
- TGI (M14 melanoma): > 100 µM
- GI50 (IGROV1 ovarian): 2.73 µM
- TGI (IGROV1 ovarian): > 100 µM
- GI50 (MDA-MB-468 breast): 1.35 µM
- TGI (MDA-MB-468 breast): 6.99 µM
- GI50 (NCI-H522 lung): 2.13 µM
- TGI (NCI-H522 lung): 8.52 µM
- GI50 (HS 578T breast): 2.31 µM
- TGI (HS 578T breast): 9.22 µM
- GI50 (TK-10 renal): 3.24 µM
- TGI (TK-10 renal): > 100 µM
- GI50 (T-47D breast): 2.2 µM
- TGI (T-47D breast): 9.96 µM
- GI50 (HOP-62 NSCLC): 2.89 µM
- TGI (HOP-62 NSCLC): > 100 µM
- GI50 (MALME-3M melanoma): 3.06 µM
- TGI (MALME-3M melanoma): 50.5 µM
- GI50 (HL-60(TB) leukemia): 3.48 µM
- TGI (HL-60(TB) leukemia): 23.4 µM
- GI50 (SF-268 CNS): 3.65 µM
- TGI (SF-268 CNS): 57.3 µM
- GI50 (NCI-H226 lung): 2.18 µM
- TGI (NCI-H226 lung): > 100 µM
- GI50 (K-562 leukemia): 2.92 µM
- TGI (K-562 leukemia): > 100 µM
- GI50 (SK-MEL-2 melanoma): 1.93 µM
- TGI (SK-MEL-2 melanoma): 4.36 µM
- GI50 (LOX IMVI melanoma): 2.87 µM
- TGI (LOX IMVI melanoma): > 100 µM
- GI50 (DU-145 prostate): 3.74 µM
- TGI (DU-145 prostate): > 100 µM
- GI50 (OVCAR-3 ovarian): 1.08 µM
- TGI (OVCAR-3 ovarian): 4.69 µM
- GI50 (A498 renal): 1.34 µM
- TGI (A498 renal): 6.88 µM
- GI50 (OVCAR-8 ovarian): 2.88 µM
- TGI (OVCAR-8 ovarian): > 100 µM
- GI50 (CCRF-CEM leukemia): 2.6 µM
- TGI (CCRF-CEM leukemia): 9.93 µM
- GI50 (SNB-19 CNS): 1.99 µM
- TGI (SNB-19 CNS): > 100 µM
- GI50 (OVCAR-5 ovarian): 3.52 µM
- TGI (OVCAR-5 ovarian): > 100 µM
- GI50 (KM12 colon): 3.39 µM
- TGI (KM12 colon): > 100 µM
- GI50 (SK-MEL-5 melanoma): 2.44 µM
- TGI (SK-MEL-5 melanoma): 12 µM
- GI50 (OVCAR-4 ovarian): 10.2 µM
- TGI (OVCAR-4 ovarian): > 100 µM
- GI50 (SK-MEL-28 melanoma): 2.66 µM
- TGI (SK-MEL-28 melanoma): 8.79 µM
- GI50 (MCF7 breast): 2.69 µM
- TGI (MCF7 breast): > 100 µM
- GI50 (SR leukemia): 2.87 µM
- TGI (SR leukemia): > 100 µM
- GI50 (SF-539 CNS): 0.618 µM
- TGI (SF-539 CNS): 7.11 µM
- GI50 (SN12C renal): 3.12 µM
- TGI (SN12C renal): > 100 µM
- GI50 (RPMI-8226 leukemia): 3.19 µM
- TGI (RPMI-8226 leukemia): > 100 µM
- GI50 (COLO 205 colon): 2.23 µM
- TGI (COLO 205 colon): 8.06 µM
- GI50 (HCT-116 colon): 2.13 µM
- TGI (HCT-116 colon): > 100 µM
- GI50 (HCT-15 colon): 2.43 µM
- TGI (HCT-15 colon): > 100 µM
- GI50 (PC-3 prostate): 5.72 µM
- TGI (PC-3 prostate): > 100 µM
- GI50 (HT29 colon): 4.3 µM
- TGI (HT29 colon): 24.1 µM
- GI50 (MOLT-4 leukemia): 4.27 µM
- TGI (MOLT-4 leukemia): > 100 µM
- GI50 (BT-549 breast): 2.44 µM
- TGI (BT-549 breast): 11.4 µM
- GI50 (SF-295 CNS): 3.65 µM
- TGI (SF-295 CNS): > 100 µM
- GI50 (UO-31 renal): 2.67 µM
- TGI (UO-31 renal): 35.3 µM
- GI50 (EKVX NSCLC): 3.55 µM
- TGI (EKVX NSCLC): > 100 µM
- GI50 (RXF 393 renal): 2.72 µM
- TGI (RXF 393 renal): 9.18 µM
- GI50 (MDA-MB-231 breast): 5.64 µM
- TGI (MDA-MB-231 breast): > 100 µM
- GI50 (HCC-2998 colon): 7.43 µM
- TGI (HCC-2998 colon): > 100 µM
- GI50 (CAKI-1 renal): 2.59 µM
- TGI (CAKI-1 renal): > 100 µM
- GI50 (U251 CNS): 2.72 µM
- TGI (U251 CNS): > 100 µM
- GI50 (786-0 renal): 5.31 µM
- TGI (786-0 renal): > 100 µM
- GI50 (NCI-H23 lung): 2.21 µM
- TGI (NCI-H23 lung): 8.75 µM
- GI50 (NCI-H460 lung): 2.67 µM
- TGI (NCI-H460 lung): > 100 µM
- GI50 (MDA-MB-435): 4.33 µM
- TGI (MDA-MB-435): > 100 µM
- GI50 (HOP-92 NSCLC): 2.58 µM
- TGI (HOP-92 NSCLC): 9.48 µM
- GI50 (SNB-75 CNS): 0.0317 µM
- TGI (SNB-75 CNS): 4.01 µM
